Results published in ChEMBL document CHEMBL4257563, “Recent Advances in the Medicinal Chemistry of Liver X Receptors” (J Med Chem, 2018).
Substitutions are numbered along the chain they refer to.

Experiments:
Homo sapiens = organism: Homo sapiens; assay: Toxicity in human assessed as decrease in mean neutrophil count at 15 mg after 7 days relative to baseline control; assay type: organism-based; set-up: scale not given: the % may be the effect or the level left; conditions: in vivo, 168 h
[1] = target: T1, Oxysterols receptor LXR-alpha (Homo sapiens) (UniProt Q13133); assay: Agonist activity at human LXRalpha expressed in HEK293 cells after 24 hrs by One-Glo luciferase reporter gene assay relative to TO901317; assay type: cell-based
T1 sequence (whole entry): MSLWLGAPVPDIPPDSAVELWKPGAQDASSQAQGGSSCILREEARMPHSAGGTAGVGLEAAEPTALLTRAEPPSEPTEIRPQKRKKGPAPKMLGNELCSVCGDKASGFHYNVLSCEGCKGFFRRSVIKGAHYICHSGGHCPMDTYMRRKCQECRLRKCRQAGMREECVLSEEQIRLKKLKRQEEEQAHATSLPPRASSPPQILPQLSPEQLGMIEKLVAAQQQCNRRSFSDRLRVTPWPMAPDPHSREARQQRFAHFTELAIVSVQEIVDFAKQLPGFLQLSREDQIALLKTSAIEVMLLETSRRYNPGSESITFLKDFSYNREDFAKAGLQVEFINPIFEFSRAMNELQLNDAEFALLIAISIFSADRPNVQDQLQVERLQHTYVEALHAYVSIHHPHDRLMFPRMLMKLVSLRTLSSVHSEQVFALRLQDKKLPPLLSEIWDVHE

[2] = target: T2, Oxysterols receptor LXR-alpha (Homo sapiens, UniProt Q13133); assay: Agonist activity at human LXRalpha expressed in HEK293 cells after 24 hrs by One-Glo luciferase reporter gene assay; assay type: cell-based
T2 sequence (Q13133 whole entry): T1 sequence (whole entry)

[3] = target: T2, Oxysterols receptor LXR-alpha; assay: Inverse agonist activity at LXRalpha (unknown origin) expressed in HEK293 cells 24 hrs by Dual-Glo luciferase assay; assay type: cell-based
[4] = target: T3, Oxysterols receptor LXR-beta (Homo sapiens, UniProt P55055); assay: Inverse agonist activity at LXRbeta (unknown origin) expressed in HEK293 cells 24 hrs by Dual-Glo luciferase assay; assay type: cell-based
T3 sequence (P55055 whole entry): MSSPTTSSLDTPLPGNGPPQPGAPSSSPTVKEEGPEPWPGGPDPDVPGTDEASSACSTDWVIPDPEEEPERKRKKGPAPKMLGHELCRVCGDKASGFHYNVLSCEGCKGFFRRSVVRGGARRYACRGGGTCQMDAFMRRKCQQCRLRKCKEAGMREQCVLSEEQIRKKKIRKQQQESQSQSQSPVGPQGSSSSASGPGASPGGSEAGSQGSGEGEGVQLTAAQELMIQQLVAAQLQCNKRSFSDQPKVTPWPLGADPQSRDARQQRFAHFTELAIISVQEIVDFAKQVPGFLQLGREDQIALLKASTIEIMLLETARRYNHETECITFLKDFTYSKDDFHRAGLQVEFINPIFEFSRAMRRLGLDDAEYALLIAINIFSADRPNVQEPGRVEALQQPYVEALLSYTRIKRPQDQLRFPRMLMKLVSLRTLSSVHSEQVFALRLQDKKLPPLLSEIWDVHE

Mus musculus = assay: Reduction in hepatic collagen deposition in mouse at 30 mg/kg, ip for 30 days; assay type: functional; conditions: 720 h
[5] = target: T3, Oxysterols receptor LXR-beta; assay: Agonist activity at GAL4-tagged human LXRbeta LBD expressed in HEK293T cells after 12 hrs by luciferase reporter gene assay; assay type: cell-based
Cynomolgus monkey [6] = assay: In vivo transactivation of LXRbeta in cynomolgus monkey assessed as induction of ABCG1 expression at 1 mg/kg, po by PCR analysis; assay type: functional, Macaca fascicularis
Cynomolgus monkey [7] = assay: In vivo transactivation in po dosed cynomolgus monkey blood assessed as induction ABCG1 mRNA expression after 24 hrs by PCR analysis; assay type: functional, organism-based; conditions: Macaca fascicularis
[8] = Plasma concentration in cynomolgus monkey at 1 mg/kg, po after 48 hrs by LC-MS analysis; assay type: ADME, organism-based, Macaca fascicularis
[9] = Tmax in cynomolgus monkey at 1 mg/kg, po by LC-MS analysis; assay type: ADME, organism-based, Macaca fascicularis; conditions: in vivo
Cynomolgus monkey [10] = assay: Increase in plasma LDL cholesterol in orally dosed cynomolgus monkey; assay type: functional, Macaca fascicularis
Cynomolgus monkey [11] = assay: Increase in plasma triglycerides in orally dosed cynomolgus monkey; assay type: functional, Macaca fascicularis
[12] = Cmax in cynomolgus monkey at 1 mg/kg, po by LC-MS analysis; assay type: ADME, organism-based, Macaca fascicularis; set-up: dose 1 mg/kg, route oral; conditions: in vivo
[13] = target: T3, Oxysterols receptor LXR-beta; assay: Agonist activity at human full length LXRbeta expressed in African green monkey CV-1 cells co-expressing human pCMX/RXRalpha after 20 hrs by luciferase reporter gene assay; assay type: cell-based
[14] = test system: T4, Oxysterols receptor LXR-alpha (Homo sapiens), Q13133 [R305G]; assay: Agonist activity at human GAL-tagged LXRbeta-LBD R305G mutant transfected in HEK293T cells assessed as co-activator recruitment using TRAP220 as co-activator by TR-FRET assay relative to TO901317; assay type: cell-based
T4 sequence (whole entry): T1 sequence (whole entry) with R305G

[15] = target: T5, Oxysterols receptor LXR-beta (Homo sapiens) (UniProt P55055); assay: Agonist activity at human GAL-tagged LXRbeta-LBD F271A mutant transfected in HEK293T cells assessed as co-activator recruitment using D22 as co-activator by TR-FRET assay relative to TO901317; assay type: cell-based
T5 sequence (whole entry): T3 sequence (P55055 whole entry)

[16] = target: T3, Oxysterols receptor LXR-beta; assay: Agonist activity at human LXRbeta-LBD (196 to 461 amino acids) expressed in HEK293T cells by luciferase reporter gene assay; assay type: cell-based
[17] = target: T2, Oxysterols receptor LXR-alpha; assay: Agonist activity at human LXRalpha-LBD (182 to 447 amino acids) expressed in HEK293T cells by luciferase reporter gene assay; assay type: cell-based
[18] = test system: T4, Oxysterols receptor LXR-alpha (Homo sapiens), Q13133 [R305G]; assay: Agonist activity at human GAL-tagged LXRbeta-LBD R305G mutant transfected in HEK293T cells assessed as co-activator recruitment using NCoR as co-repressor by TR-FRET assay relative to TO901317; assay type: cell-based
[19] = target: T5, Oxysterols receptor LXR-beta (Homo sapiens); assay: Agonist activity at human GAL-tagged LXRbeta-LBD F271A mutant transfected in HEK293T cells assessed as co-repressor recruitment using SMRT as co-repressor by TR-FRET assay relative to TO901317; assay type: cell-based

Compound `CC(C)(O)c1cn(-c2ccc(-c3cc(F)c(CO)c(S(C)(=O)=O)c3)cc2F)c(C(C)(C)c2c(Cl)cccc2Cl)n1` [BMS-852927] has an Activity (Homo sapiens) of 47%.

For `C[C@H](CCC(=O)N(C)C)[C@H]1CC[C@H]2[C@@H]3CC=C4C[C@@H](O)CC[C@]4(C)[C@H]3CC[C@]12C`, the Emax [1] was 45% and the EC50 [2] was 422 nM.

`CCOC(=O)c1ccc(CN(Cc2ccc(-c3cccc(S(C)(=O)=O)c3)cc2)S(=O)(=O)c2c(C)cc(C)cc2C)o1` showed an IC50 [3] of 214 nM, an IC50 [4] of 43 nM and an inhibition in vivo at 30 mg/kg (Mus musculus) of 90%.

With `Cc1c(C(=O)OC(C)C(=O)N2CCNC2=O)oc2cc(F)ccc12` (stereo not drawn) the EC50 [5] was 720 nM.

With `CC(C)(O)c1cn(-c2ccc(-c3cccc(S(C)(=O)=O)c3)cc2)c(C(C)(C)c2ccccc2Cl)n1` [BMS-779788] the “fold change (FC)” value (Cynomolgus monkey [6]) was 4.7, the EC50 (Cynomolgus monkey [7]) was 610 nM and the concentration at 48 h [8] was 154 nM. For the same compound, the Tmax [9] was 2 h, the “fold change (FC)” value (Cynomolgus monkey [10]) was 12 and the “fold change (FC)” value (Cynomolgus monkey [11]) was 29. The Cmax [12] was 2230 nM.

`CS(=O)(=O)c1cccc(-c2ccc(-c3cc(C(F)(F)F)nn3-c3ccccc3Cl)s2)c1` gave an EC50 [13] of 108 nM.

In the case of `CN(CC(=O)Nc1ccc(F)c(F)c1F)C(=O)c1ccc2c(c1)OCCO2`, the Activity [14] is reported as 18%, the Activity [15] is reported as 13% and the EC50 [16] is reported as 530 nM. It also gave an EC50 [17] of 150 nM, an Activity [18] of 31% and an Activity [19] of 23%.

Work on `COC1CCN(C(=O)CC[C@@H](C)[C@H]2CC[C@H]3[C@@H]4CC=C5C[C@@H](O)CC[C@]5(C)[C@H]4CC[C@]23C)CC1` yielded an Emax [1] of 58% and an EC50 [2] of 230 nM.
